Measurements as given in ChEMBL document CHEMBL1155571, “Pelorol from the tropical marine sponge Dactylospongia elegans” (J Nat Prod, 2000).
Converted amounts (≈) assume the structure as drawn.

What was measured:
Plasmodium falciparum [1] = assay: Antiplasmodial activity against Plasmodium falciparum NF54; format: functional, organism-based
Plasmodium falciparum [2] = assay: Antiplasmodial activity against Plasmodium falciparum K1; format: functional, organism-based
[3] = system: Trypanosoma brucei rhodesiense; assay: Antitrypanosomal activity against Trypanosoma rhodesiense; format: functional, organism-based
tyrosine kinase = assay: Inhibition of tyrosine kinase at 1 ug/uL

Structure (SMILES)	IC50 (Plasmodium falciparum [1]) [µg/mL]	IC50 (Plasmodium falciparum [2]) [µg/mL]	IC50 [3] [µg/mL]	inhibition (tyrosine kinase) [%]
C[C@@H]1CC[C@H]2[C@@H](C)C(=O)O[C@@H]3O[C@@]4(C)CC[C@@H]1[C@]32OO4 [ARTEMISININ]	0.0025 (≈ 0.00885 µM)	0.0014 (≈ 0.00496 µM)	–	–
C=C1CCC[C@H]2[C@](C)(CC3=C(O)C(=O)C=C(OC)C3=O)[C@@H](C)CC[C@]12C [ILIMAQUINONE]	0.949 (≈ 2.65 µM)	1.74 (≈ 4.86 µM)	7.7 (≈ 21.5 µM)	87
COC(=O)c1cc(O)c(O)c2c1[C@]1(C)CC[C@H]3C(C)(C)CCC[C@]3(C)[C@H]1C2 [PELOROL]	1.91 (≈ 5.13 µM)	0.786 (≈ 2.11 µM)	17.4 (≈ 46.7 µM)	–
